{"source": "paper PMC10318132", "about": "“Synthesis and activity study of novel N,N-diphenylurea derivatives as IDO1 inhibitors” (Frontiers in Chemistry, 2023)", "key": {"IDO1": {"target": "T1, IDO1 (Homo sapiens, UniProt P14902)", "T1 construct": "host or cells: HeLa cells stimulated with 100 ng/mL human IFN-γ", "T1 sequence (P14902 whole entry)": "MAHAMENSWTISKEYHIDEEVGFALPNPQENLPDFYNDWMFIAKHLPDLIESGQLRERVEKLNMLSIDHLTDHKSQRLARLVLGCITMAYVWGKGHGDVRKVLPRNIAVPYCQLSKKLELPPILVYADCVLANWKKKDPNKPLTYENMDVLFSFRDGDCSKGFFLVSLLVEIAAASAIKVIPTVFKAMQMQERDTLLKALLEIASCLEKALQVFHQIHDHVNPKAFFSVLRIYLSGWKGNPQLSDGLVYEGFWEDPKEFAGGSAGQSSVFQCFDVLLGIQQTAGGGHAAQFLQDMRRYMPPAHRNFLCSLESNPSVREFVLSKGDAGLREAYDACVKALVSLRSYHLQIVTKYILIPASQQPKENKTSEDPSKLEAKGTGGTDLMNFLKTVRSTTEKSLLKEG", "assay": "Hela cell-based functional assay of IDO1 inhibition (kynurenine read at 480 nm)", "conditions": "Hela cells, 100 ng/mL human IFN-γ, 18 h; averages ±SD of two parallel experiments", "procedure": "Based on a comprehensive review of the literature, we employed a Hela cell-based functional assay to investigate the IDO1 inhibition activities of the designed compounds.\nTo assess the inhibitory effect of the designed compounds against IDO1, Hela cells were seeded at 50,000–60,000 cells per well in 100 μL of complete Dulbecco’s modified eagle medium growth medium in a 96-well plate and incubated for 12–18 h. On the second day, diluted inhibitor at a final concentration of 100 ng/mL human IFN-γ was added (100 μL per well) and incubated at 37°C with 5% CO2 for 18 h. On the third day, 140 μL of medium was transferred into a new 96-well plate, and the protein was precipitated with 10 μL of 6.1 N trichloroacetic acid (CCl3COOH) at 50°C for 30 min. The plate was then centrifuged at 2,500 rpm for 10 min, and 100 μL of supernatant was transferred to another 96-well plate and mixed with 100 μL of 2% (w/v) p-dimethylaminobenzaldehyde in CH3COOH. The plate was incubated at 25°C for 10 min, and the yellow color derived from kynurenine was measured at 480 nm using a microplate reader (PE, United States). Inhibition curves with IC50 values were generated using Prism 6.0."}, "[1]": {"test_system": "melanin-concentrating hormone", "design": "method as in McBriar et al., 2006", "conditions": "melanin-concentrating hormone antagonist; ref McBriar et al., 2006; cited from earlier work"}, "Staphylococcus aureus": {"test_system": "Staphylococcus aureus", "design": "method as in Babu et al., 2015", "conditions": "ref Babu et al., 2015; cited from earlier work"}, "[2]": {"test_system": "laryngeal squamous carcinoma cells", "design": "method as in Khanet al.", "conditions": "ref Khanet al.; cited from earlier work"}, "pancreatic cancer cells": {"test_system": "pancreatic cancer cells", "design": "method as in Khanet al.", "conditions": "ref Khanet al.; cited from earlier work"}, "HIV-1 protease": {"test_system": "HIV-1 protease", "design": "method as in The Lipton laboratory", "conditions": "ref The Lipton laboratory; cited from earlier work"}}, "data": [{"compound": "Cc1ccc(-c2csc3nnc(SCC(=O)Nc4ccc5c(c4)OCO5)n23)cc1", "note": "[Amg-1, reference compound]", "values": [{"measurement": "IC50", "setting": "IDO1", "value": 3.97, "unit": "µM"}]}, {"compound": "COc1ccc(NC(=O)NCc2cn(Cc3ccccc3Br)nn2)cc1", "note": "[Compound 3a, 1-((1-(2-bromobenzyl) -1H-1,2,3-triazol-4-yl)methyl) -3-(4-methoxyphenyl) urea]", "values": [{"measurement": "IC50", "setting": "IDO1", "value": "> 20", "unit": "µM"}]}, {"compound": "O=C(NCc1cn(Cc2ccccc2Br)nn1)Nc1ccc(Br)cc1", "note": "[Compound 3d, 1-((1-(2-bromobenzyl) -1H-1,2,3-triazol-4-yl)methyl) -3-(4-bromophenyl) urea]", "values": [{"measurement": "IC50", "setting": "IDO1", "value": "> 20", "unit": "µM"}]}, {"compound": "O=C(NCc1cn(Cc2cccc(Br)c2)nn1)Nc1ccc(Br)cc1", "note": "[Compound 3e, 1-((1-(3-bromobenzyl) -1H-1,2,3-triazol-4-yl)methyl) -3-(4-bromophenyl) urea]", "values": [{"measurement": "IC50", "setting": "IDO1", "value": "> 20", "unit": "µM"}]}, {"compound": "COc1ccc(NC(=O)NC(C)(C)c2cn(Cc3ccccc3Br)nn2)cc1", "note": "[Compound 3f, 1-(2-(1-(2-bromobenzyl)-1H-1,2,3-triazol-4-yl)propan-2-yl)-3-(4-methoxyphenyl)urea]", "values": [{"measurement": "IC50", "setting": "IDO1", "value": "17.9 ± 3.14", "unit": "µM"}]}, {"compound": "COc1ccc(NC(=O)NC(C)(C)c2cn(Cc3cccc(Br)c3)nn2)cc1", "note": "[Compound 3g, 1-(2-(1-(3-bromobenzyl)-1H-1,2,3-triazol-4-yl)propan-2-yl)-3-(4-methoxyphenyl)urea]", "values": [{"measurement": "IC50", "setting": "IDO1", "value": "1.73 ± 0.97", "unit": "µM"}]}, {"compound": "COc1ccc(NC(=O)NC(C)(C)c2cn(Cc3cccc(OC)c3)nn2)cc1", "note": "[Compound 3h, 1-(2-(1-(3-methoxybenzyl)-1H-1,2,3-triazol-4-yl)propan-2-yl)-3-(4-methoxyphenyl)urea]", "values": [{"measurement": "IC50", "setting": "IDO1", "value": "5.82 ± 2.65", "unit": "µM"}]}, {"compound": "CC(C)(NC(=O)Nc1ccc(Br)cc1)c1cn(Cc2ccccc2Br)nn1", "note": "[Compound 3i, 1-(2-(1-(2-bromobenzyl)-1H-1,2,3-triazol-4-yl)propan-2-yl)-3-(4-bromophenyl)urea]", "values": [{"measurement": "IC50", "setting": "IDO1", "value": "> 20", "unit": "µM"}]}, {"compound": "CC(C)(NC(=O)Nc1ccc(Br)cc1)c1cn(Cc2cccc(Br)c2)nn1", "note": "[Compound 3j, 1-(2-(1-(3-bromobenzyl)-1H-1,2,3-triazol-4-yl)propan-2-yl)-3-(4-bromophenyl)urea]", "values": [{"measurement": "IC50", "setting": "IDO1", "value": "> 20", "unit": "µM"}]}, {"compound": "CN1CCN(CCCN(C(=O)Nc2ccc(F)c(C(F)(F)F)c2)[C@@H]2CC[C@]3(c4ccc(C#N)cc4)C[C@H]23)CC1", "note": "[Compound 7]", "values": [{"measurement": "effect on body weight", "setting": "[1]", "value": "effective in reducing body weight"}]}, {"compound": "O=C(Nc1ccc(F)c(C(F)(F)F)c1)N1CCN(c2ncc3cc(-c4cccnc4F)ccc3n2)CC1", "note": "[Compound 8]", "values": [{"measurement": "inhibitory effect on the proliferation of Staphylococcus aureus", "setting": "Staphylococcus aureus", "value": "excellent inhibitory effect"}]}, {"compound": "CNc1ccccc1C(=O)NC(=O)Nc1ccc(Oc2ncc(Br)cn2)c(C)c1", "note": "[Compound 9]", "values": [{"measurement": "repression of laryngeal squamous carcinoma cells", "setting": "[2]", "value": "effectively repress"}, {"measurement": "repression of pancreatic cancer cells", "setting": "pancreatic cancer cells", "value": "effectively repress"}]}, {"compound": "COC(=O)C(NC(=O)C(NC(=O)C(Cc1ccccc1)NC(=O)NC(Cc1ccccc1)NC(=O)C(C)NC(=O)C(C)N)C(C)C)C(C)C", "note": "(centres unmarked) [Compound 10]", "values": [{"measurement": "inhibitory effect on HIV-1 protease", "setting": "HIV-1 protease", "value": "moderate inhibitory effect"}]}]}
